In ChEMBL document CHEMBL4842339, “8-Hydroxyquinolin-2(1H)-one analogues as potential β2-agonists: Design, synthesis and activity study” (Eur J Med Chem, 2021):

Columns and labels:
[1] = target: Beta-2 adrenergic receptor (Homo sapiens, UniProt P07550); test: Agonist activity at human beta2 adrenoreceptor overexpressed in HEK293 cells assessed as cAMP accumulation; assay type: functional, cell-based
[2] = […] agonist activity at beta2 adrenergic receptor isolated from guinea pig tracheal smooth muscle assessed as inhibition of histamine-induced tracheal smooth muscle contraction by measuring maximal relaxant effect relative to control; assay type: functional; conditions: Cavia porcellus
[3] = target: Beta-1 adrenergic receptor (Homo sapiens, UniProt P08588); test: Agonist activity at human beta1 adrenoreceptor overexpressed in HEK293 cells assessed as cAMP accumulation; assay type: functional, cell-based
[4] = […] agonist activity at beta2 adrenergic receptor isolated from guinea pig tracheal smooth muscle assessed as inhibition of histamine-induced tracheal smooth muscle contraction; assay type: functional, Cavia porcellus
[5] = species: Cavia porcellus; test: Myorelaxant effect in guinea pig model of histamine-induced smooth muscle contraction assessed as time duration of action measured over 12 hrs; assay type: functional; conditions: time hrs >12
[6] = species: Cavia porcellus; test: Myorelaxant effect in guinea pig model of histamine-induced smooth muscle contraction assessed as time of onset of action measured over 12 hrs; assay type: functional

Beta-2 adrenergic receptor, sequence (P07550 whole entry): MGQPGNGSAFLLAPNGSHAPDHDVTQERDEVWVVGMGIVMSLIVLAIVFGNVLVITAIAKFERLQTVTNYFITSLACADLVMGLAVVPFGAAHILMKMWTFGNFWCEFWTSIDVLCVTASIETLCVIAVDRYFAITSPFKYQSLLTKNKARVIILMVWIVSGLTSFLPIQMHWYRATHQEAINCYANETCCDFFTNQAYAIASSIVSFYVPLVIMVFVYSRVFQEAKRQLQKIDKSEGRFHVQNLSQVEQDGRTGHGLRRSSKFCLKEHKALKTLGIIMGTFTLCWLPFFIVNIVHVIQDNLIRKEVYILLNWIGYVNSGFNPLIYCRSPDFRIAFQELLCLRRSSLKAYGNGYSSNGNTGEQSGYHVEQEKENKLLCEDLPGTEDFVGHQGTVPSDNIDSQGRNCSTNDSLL
Beta-1 adrenergic receptor, sequence (P08588 whole entry): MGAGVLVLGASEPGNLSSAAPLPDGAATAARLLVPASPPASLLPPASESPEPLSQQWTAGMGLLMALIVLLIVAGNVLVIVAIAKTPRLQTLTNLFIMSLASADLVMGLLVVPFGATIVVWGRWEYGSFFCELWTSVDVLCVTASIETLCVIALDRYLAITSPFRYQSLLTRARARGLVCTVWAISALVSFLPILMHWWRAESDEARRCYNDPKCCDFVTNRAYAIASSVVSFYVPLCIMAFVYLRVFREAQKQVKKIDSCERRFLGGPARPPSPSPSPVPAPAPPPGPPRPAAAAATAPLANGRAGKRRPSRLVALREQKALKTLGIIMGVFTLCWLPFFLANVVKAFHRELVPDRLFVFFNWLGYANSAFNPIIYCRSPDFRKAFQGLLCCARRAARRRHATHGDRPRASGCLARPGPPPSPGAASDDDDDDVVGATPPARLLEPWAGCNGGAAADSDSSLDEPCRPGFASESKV

| EC50 [1] | EC50 [3] | Compound | Emax [2] | pD2 [4] | Time [5] | Time [6] |
| --- | --- | --- | --- | --- | --- | --- |
| 0.0724 nM | – | CC(CCc1cccc(Cl)c1)NCC(O)c1ccc(O)c2[nH]c(=O)ccc12 (stereo unspecified) | 105% | – | – | – |
| – | 6.76 nM | Cc1ccccc1CCC(C)NCC(O)c1ccc(O)c2[nH]c(=O)ccc12 (stereo unspecified) | – | – | – | – |
| 0.0288 nM | – | COc1ccccc1CC[C@@H](C)NC[C@H](O)c1ccc(O)c2[nH]c(=O)ccc12 | – | – | – | – |
| 0.0135 nM | – | CC(CCc1cccc(O)c1)NCC(O)c1ccc(O)c2[nH]c(=O)ccc12 (stereo unspecified) | – | – | – | – |
| – | 6.31 nM | CC(CCc1ccc(Cl)cc1)NCC(O)c1ccc(O)c2[nH]c(=O)ccc12 (stereo unspecified) | – | – | – | – |
| 0.0148 nM | – | COc1ccccc1CCC(C)NCC(O)c1ccc(O)c2[nH]c(=O)ccc12 (stereo unspecified) | – | – | – | – |
| 0.0224 nM | – | COc1ccccc1CCC(C)(C)NCC(O)c1ccc(O)c2[nH]c(=O)ccc12 (stereo unspecified) | 141% | – | – | – |
| 0.0182 nM | 44.7 nM | COc1ccc(CCC(C)NCC(O)c2ccc(O)c3[nH]c(=O)ccc23)cc1.Cl (stereo unspecified) | 104% | 7.48 | – | – |
| 0.0339 nM | 4.57 nM | CC(CCc1ccccc1Cl)NCC(O)c1ccc(O)c2[nH]c(=O)ccc12.Cl (stereo unspecified) | 95.3% | 7.87 | – | – |
| 0.0214 nM | 2.57 nM | COc1cccc(CCC(C)NCC(O)c2ccc(O)c3[nH]c(=O)ccc23)c1.Cl (stereo unspecified) | 196% | 7.33 | >12 h | 4.97 min |
| 0.038 nM | 10.5 nM | Cc1ccc(CCC(C)NCC(O)c2ccc(O)c3[nH]c(=O)ccc23)cc1.Cl (stereo unspecified) | 95.9% | 7.58 | – | – |
| – | 3.09 nM | CC(CCc1cccc(F)c1)NCC(O)c1ccc(O)c2[nH]c(=O)ccc12 (stereo unspecified) | 163% | – | – | – |
| 0.0282 nM | – | CC(CCc1ccc(F)cc1)NCC(O)c1ccc(O)c2[nH]c(=O)ccc12 (stereo unspecified) | 100% | – | – | – |
| – | 4.07 nM | Cc1cccc(CCC(C)NCC(O)c2ccc(O)c3[nH]c(=O)ccc23)c1 (stereo unspecified) | – | – | – | – |

More lines, now with the values behind:

| Compound | EC50 [1] | EC50 [3] | Emax [2] | pD2 [4] | Time [5] | Time [6] |
| --- | --- | --- | --- | --- | --- | --- |
| O=c1ccc2c(C(O)CNCCCc3cccc(F)c3)ccc(O)c2[nH]1 (stereo unspecified) | 0.0245 nM | – | – | – | – | – |
| CC(CCc1ccc(O)cc1)NCC(O)c1ccc(O)c2[nH]c(=O)ccc12 (stereo unspecified) | 0.0107 nM | – | 71.3% | – | – | – |
| Cc1ccccc1CCC(C)(C)NCC(O)c1ccc(O)c2[nH]c(=O)ccc12 (stereo unspecified) | 0.0178 nM | – | – | – | – | – |
| COc1ccc(CCC(C)(C)NCC(O)c2ccc(O)c3[nH]c(=O)ccc23)cc1.Cl (stereo unspecified) | 0.0309 nM | 7.76 nM | 161% | 7.86 | – | – |
| CC(C)(CCc1cccc(O)c1)NCC(O)c1ccc(O)c2[nH]c(=O)ccc12.Cl (stereo unspecified) | 0.0182 nM | 2.4 nM | 103% | 6.37 | – | – |
| Cc1cccc(CCC(C)(C)NCC(O)c2ccc(O)c3[nH]c(=O)ccc23)c1 (stereo unspecified) | – | 2.63 nM | 152% | – | – | – |
| CC(C)(CCc1cccc(Cl)c1)NCC(O)c1ccc(O)c2[nH]c(=O)ccc12.Cl (stereo unspecified) | – | – | – | – | >12 h | 3.43 min |
| Cc1ccccc1CCCNCC(O)c1ccc(O)c2[nH]c(=O)ccc12.Cl (stereo unspecified) | 0.0575 nM | 17 nM | 125% | 7.72 | – | – |
| COc1cccc(CCC(C)(C)NCC(O)c2ccc(O)c3[nH]c(=O)ccc23)c1 (stereo unspecified) | – | 7.59 nM | 112% | – | – | – |
| COc1cc(CCC(C)NCC(O)c2ccc(O)c3[nH]c(=O)ccc23)cc(OC)c1OC (stereo unspecified) | – | 35.5 nM | 141% | – | – | – |
| Cc1ccc(CCC(C)(C)NCC(O)c2ccc(O)c3[nH]c(=O)ccc23)cc1 (stereo unspecified) | – | 24.5 nM | – | – | – | – |
| COc1cc(CCCNCC(O)c2ccc(O)c3[nH]c(=O)ccc23)cc(OC)c1OC.Cl (stereo unspecified) | 0.0832 nM | 10000 nM | 111% | 7.74 | – | – |
| CC(C)(CCc1ccccc1Cl)NCC(O)c1ccc(O)c2[nH]c(=O)ccc12 (stereo unspecified) | – | 1.74 nM | 124% | – | – | – |
| Cc1cccc(CCCNCC(O)c2ccc(O)c3[nH]c(=O)ccc23)c1.Cl (stereo unspecified) | 0.038 nM | 14.5 nM | 144% | 7.66 | – | – |
| O=c1ccc2c(C(O)CNCCCc3cc(F)cc(F)c3)ccc(O)c2[nH]1 (stereo unspecified) | 0.0214 nM | – | – | – | – | – |
| O=c1ccc2c(C(O)CNCCCc3cccc(C(F)(F)F)c3)ccc(O)c2[nH]1 (stereo unspecified) | 0.0282 nM | – | – | – | – | – |
| Cc1ccc(CCCNCC(O)c2ccc(O)c3[nH]c(=O)ccc23)cc1 (stereo unspecified) | 0.0955 nM | – | – | – | – | – |
| Cl.O=c1ccc2c(C(O)CNCCCc3ccc(F)cc3)ccc(O)c2[nH]1 (stereo unspecified) | 0.0468 nM | 16.2 nM | 153% | 7.39 | – | – |
| CC(C)NCC(O)c1ccc(O)c(O)c1 (stereo unspecified) [ISOPROTERENOL] | – | – | 181% | – | – | 3.1 min |
| COc1ccc(CC(C)(C)NC[C@H](O)c2cc(O)cc3c2OCC(=O)N3)cc1 [OLODATEROL] | – | 123 nM | 170% | – | – | 2.31 min |
| OCc1cc(C(O)CNCCCCCCOCCCCc2ccccc2)ccc1O (stereo unspecified) [SALMETEROL] | – | – | 172% | – | – | 4.23 min |
